Experiments:
ECHCG [1] = assay: Herbicidal pre-emergence action (Table A2); assay type: in vivo, Echinochloa crus-galli; conditions: visual grading after ca. 3 weeks
Method in brief: (§1)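 Double sowing per pot (1 monocot + 1 dicot weed species), sandy loam substrate, seeds covered with soil.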

LOLRI [2] = assay: Herbicidal pre-emergence action (Table A3); assay type: in vivo, Lolium rigidum; conditions: application rate 320 g/ha; visual grading after ca. 3 weeks
Method in brief: as §1

SETVI [3] = assay: Herbicidal pre-emergence action (Table A5); assay type: in vivo, Setaria viridis; conditions: application rate 320 g/ha; visual grading after ca. 3 weeks
Method in brief: as §1

ALOMY [4] = assay: Herbicidal post-emergence action (Table B2); assay type: in vivo, Alopecurus myosuroides; conditions: application rate 1280 g/ha; rated visually after about 3 weeks
Protocol: (§2) Seeds of mono- and dicotyledonous weed plants were placed in plastic pots in sandy loam soil (doubly sown with in each case one species of mono- or dicotyledonous weed plants per pot), covered with soil and cultivated in a greenhouse under controlled growth conditions. 2 to 3 weeks after sowing, the test plants were treated at the one-leaf stage. […] After the test plants had been kept in the greenhouse under optimum growth conditions for about 3 weeks, the activity of the preparations was rated visually in comparison to untreated controls. For example, 100% activity = the plants have died, 0% activity = like control plants.

ECHCG [5] = assay: Herbicidal post-emergence action (Table B3); assay type: in vivo, Echinochloa crus-galli; conditions: application rate 1280 g/ha; rated visually after about 3 weeks
Method in brief: (§3)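 Greenhouse post-emergence screen on potted weeds in sandy loam, treatment at one-leaf stage, visual % control scored ~3 weeks later against untreated plants.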

VERPE [6] = assay: Herbicidal post-emergence action (Table B10); assay type: in vivo, Veronica persica; conditions: application rate 320 g/ha
Method in brief: as §3

ABUTH [7] = assay: Herbicidal pre-emergence action (Table A1); assay type: in vivo, Abutilon theophrasti; conditions: application rate 1280 g/ha; visual grading after ca. 3 weeks vs untreated controls (100% = plants have died off, 0% = as control plants)
Method in brief: as §1

MATIN [8] = assay: Herbicidal pre-emergence action (Table A4); assay type: in vivo, Matricaria inodora; conditions: application rate 320 g/ha; visual grading after ca. 3 weeks
Method in brief: as §1

STEME = assay: Herbicidal pre-emergence action (Table A6); assay type: in vivo, Stellaria media; conditions: application rate 320 g/ha; visual grading after ca. 3 weeks
Method in brief: as §1

POAAN = assay: Herbicidal pre-emergence action (Table A7); assay type: in vivo, Poa annua; conditions: application rate 320 g/ha; visual grading after ca. 3 weeks
Method in brief: as §1

AMARE = assay: Herbicidal pre-emergence action (Table A8); assay type: in vivo, Amaranthus retroflexus; conditions: application rate 1280 g/ha; visual grading after ca. 3 weeks vs untreated controls (100% = plants have died off, 0% = as control plants)
Method in brief: as §1

ALOMY [9] = assay: Herbicidal pre-emergence action (Table A9); assay type: in vivo, Alopecurus myosuroides; conditions: application rate 1280 g/ha; visual grading after ca. 3 weeks
Method in brief: as §1

KCHSC = assay: Herbicidal pre-emergence action (Table A10); assay type: in vivo, Kochia scoparia; conditions: application rate 320 g/ha; visual grading after ca. 3 weeks
Method in brief: as §1

VERPE [10] = assay: Herbicidal pre-emergence action (Table A11); assay type: in vivo, Veronica persica; conditions: application rate 1280 g/ha; visual grading after ca. 3 weeks
Method in brief: as §1

DIGSA [11] = assay: Herbicidal pre-emergence action (Table A12); assay type: in vivo, Digitaria sanguinalis; conditions: application rate 320 g/ha; visual grading after ca. 3 weeks
Method in brief: as §1

LOLRI [12] = assay: Herbicidal post-emergence action (Table B5); assay type: in vivo, Lolium rigidum; conditions: application rate 1280 g/ha; rated visually after about 3 weeks
Protocol: as §2

MATIN [13] = assay: Herbicidal post-emergence action (Table B6); assay type: in vivo, Matricaria inodora; conditions: application rate 1280 g/ha; rated visually after about 3 weeks
Method in brief: as §3

SETVI [14] = assay: Herbicidal post-emergence action (Table B8); assay type: in vivo, Setaria viridis; conditions: application rate 1280 g/ha
Method in brief: as §3

ABUTH [15] = assay: Herbicidal pre-emergence action, section C (Table C1); assay type: in vivo, Abutilon theophrasti; conditions: application rate 320 g/ha; visual grading after ca. 3 weeks
ALOMY [16] = assay: Herbicidal pre-emergence action, section C (Table C2); assay type: in vivo, Alopecurus myosuroides; conditions: application rate 320 g/ha; visual grading after ca. 3 weeks
DIGSA [17] = assay: Herbicidal pre-emergence action, section C (Table C5); assay type: in vivo, Digitaria sanguinalis; conditions: application rate 80 g/ha; visual grading after ca. 3 weeks
Description: (§5) Seeds of mono- and dicotyledonous weed plants and crop plants were sown, in plastic or organic planting pots, in sandy loam and covered with soil. The compounds according to the invention, formulated in the form of wettable powders (WP) or as emulsifiable concentrates (EC), were applied to the surface of the covering soil as aqueous suspension or emulsion, with the addition of 0.5% of an additive, at an application rate of 600 1 of water/ha (converted). Following treatment, the pots were placed in a greenhouse and kept under optimum growth conditions for the test plants.

ECHCG [18] = assay: Herbicidal pre-emergence action, section C (Table C6); assay type: in vivo, Echinochloa crus-galli; conditions: application rate 80 g/ha; visual grading after ca. 3 weeks
LOLRI [19] = assay: Herbicidal pre-emergence action, section C (Table C7); assay type: in vivo, Lolium rigidum; conditions: application rate 320 g/ha; visual grading after ca. 3 weeks
Description: as §5

MATIN [20] = assay: Herbicidal pre-emergence action, section C (Table C8); assay type: in vivo, Matricaria inodora; conditions: application rate 320 g/ha; visual grading after ca. 3 weeks
Description: as §5

POLCO = assay: Herbicidal pre-emergence action, section C (Table C9); assay type: in vivo, Polygonum convolvulus; conditions: application rate 320 g/ha; visual grading after ca. 3 weeks
SETVI [21] = assay: Herbicidal pre-emergence action, section C (Table C10); assay type: in vivo, Setaria viridis; conditions: application rate 80 g/ha; visual grading after ca. 3 weeks
Description: as §5

VERPE [22] = assay: Herbicidal pre-emergence action, section C (Table C11); assay type: in vivo, Veronica persica; conditions: application rate 320 g/ha; visual grading after ca. 3 weeks
VIOTR [23] = assay: Herbicidal pre-emergence action, section C (Table C12); assay type: in vivo, Viola tricolor; conditions: application rate 80 g/ha; visual grading after ca. 3 weeks
ZEAMX [24] = assay: Pre-emergence effects on crop plants (Table D1); assay type: in vivo, Zea mays; conditions: crop plant; application rate 320 g/ha; visual grading after ca. 3 weeks
TRZAS [25] = assay: Pre-emergence effects on crop plants (Table D2); assay type: in vivo, Triticum aestivum; conditions: crop plant; application rate 80 g/ha; visual grading after ca. 3 weeks
GLXMA = assay: Pre-emergence effects on crop plants (Table D4); assay type: in vivo, Glycine max; conditions: crop plant; application rate 320 g/ha; visual grading after ca. 3 weeks
BRSNW [26] = assay: Pre-emergence effects on crop plants (Table D5); assay type: in vivo, Brassica napus; conditions: crop plant; application rate 80 g/ha; visual grading after ca. 3 weeks
ALOMY [27] = assay: Herbicidal post-emergence action, section E (Table E2); assay type: in vivo, Alopecurus myosuroides; conditions: application rate 320 g/ha; assessed visually after ca. 3 weeks
Description: (§4) 2 to 3 weeks after sowing, the test plants were sprayed in the single-leaf stage.

ECHCG [28] = assay: Herbicidal post-emergence action, section E (Table E5); assay type: in vivo, Echinochloa crus-galli; conditions: application rate 320 g/ha; assessed visually after ca. 3 weeks
Description: as §4

VIOTR [29] = assay: Herbicidal post-emergence action, section E (Table E10); assay type: in vivo, Viola tricolor; conditions: application rate 320 g/ha; assessed visually after ca. 3 weeks
Description: as §4

ZEAMX [30] = assay: Post-emergence effects on crop plants (Table F1); assay type: in vivo, Zea mays; conditions: application rate 320 g/ha, crop plant ZEAMX
Description: as §4

TRZAS [31] = assay: Post-emergence effects on crop plants (Table F2); assay type: in vivo, Triticum aestivum; conditions: application rate 320 g/ha, crop plant TRZAS
Description: as §4

ORYZA [32] = assay: Post-emergence effects on crop plants (Table F3); assay type: in vivo, Oryza sativa; conditions: application rate 320 g/ha, crop plant ORYZA
Description: as §4

BRSNW [33] = assay: Post-emergence effects on crop plants (Table F5); assay type: in vivo, Brassica napus; conditions: application rate 80 g/ha, crop plant BRSNW
Description: as §4

ORYZA [34] = assay: Pre-emergence effects on crop plants (Table D3); conditions: crop plant; application rate 80 g/ha; visual grading after ca. 3 weeks

## O=C1N(Cc2ccccc2Br)CCCC12CCCN(Cc1cccc(F)c1F)C2=O (racemic) [I-055]
ECHCG [1]; application rate 320 g/ha
  pre-emergence activity against ECHCG: 100%
LOLRI [2]
  pre-emergence activity against LOLRI: 100%
SETVI [3]
  pre-emergence activity against SETVI: 90%
ALOMY [4]
  post-emergence activity against ALOMY: 90%
ECHCG [5]
  post-emergence activity against ECHCG: 90%
VERPE [6]
  post-emergence activity against VERPE: 90%

## O=C1N(Cc2ccccc2F)CCC12CCCN(Cc1c(F)cccc1F)C2=O (racemic) [I-024]
ABUTH [7]
  pre-emergence activity against ABUTH: 90%
ECHCG [1]; application rate 1280 g/ha
  pre-emergence activity against ECHCG: 100%
LOLRI [2]
  pre-emergence activity against LOLRI: 100%
MATIN [8]
  pre-emergence activity against MATIN: 90%
SETVI [3]
  pre-emergence activity against SETVI: 100%
STEME
  pre-emergence activity against STEME: 90%
POAAN
  pre-emergence activity against POAAN: 100%
AMARE
  pre-emergence activity against AMARE: 90%
ALOMY [9]
  pre-emergence activity against ALOMY: 90%
KCHSC
  pre-emergence activity against KCHSC: 90%
VERPE [10]
  pre-emergence activity against VERPE: 90%
DIGSA [11]
  pre-emergence activity against DIGSA: 100%
ECHCG [5]
  post-emergence activity against ECHCG: 90%
LOLRI [12]
  post-emergence activity against LOLRI: 90%
MATIN [13]
  post-emergence activity against MATIN: 90%
SETVI [14]
  post-emergence activity against SETVI: 90%
ABUTH [15]
  pre-emergence activity against ABUTH: 90%
ALOMY [16]
  pre-emergence activity against ALOMY: 90%
DIGSA [17]
  pre-emergence activity against DIGSA: 80%
ECHCG [18]
  pre-emergence activity against ECHCG: 100%
LOLRI [19]
  pre-emergence activity against LOLRI: 90%
MATIN [20]
  pre-emergence activity against MATIN: 90%
POLCO
  pre-emergence activity against POLCO: 90%
SETVI [21]
  pre-emergence activity against SETVI: 100%
VERPE [22]
  pre-emergence activity against VERPE: 90%
VIOTR [23]
  pre-emergence activity against VIOTR: 90%
ZEAMX [24]
  pre-emergence activity against ZEAMX: 0%
TRZAS [25]
  pre-emergence activity against TRZAS: 0%
GLXMA
  pre-emergence activity against GLXMA: 0%
BRSNW [26]
  pre-emergence activity against BRSNW: 20%
ALOMY [27]
  post-emergence activity against ALOMY: 80%
ECHCG [28]
  post-emergence activity against ECHCG: 90%
VIOTR [29]
  post-emergence activity against VIOTR: 80%
ZEAMX [30]
  post-emergence activity against ZEAMX: 0%
TRZAS [31]
  post-emergence activity against TRZAS: 0%
ORYZA [32]
  post-emergence activity against ORYZA: 0%
BRSNW [33]
  post-emergence activity against BRSNW: 0%
ORYZA [34]
  pre-emergence activity against ORYZA: 0%
